Values quoted from earlier work as cited in US6432966B1, “Antiviral combinations” (SmithKline Beecham Corporation, priority 1999, dated 2002).

Assays:
[1] = tested on: HBV
[2] = tested on: HBV; conditions: in vitro
[3] = tested on: Hepatitis B virus; conditions: oral, woodchucks

Structure (SMILES) | patients maintaining undetectable levels of virus ([1]; through to the end of the second year) [%] | levels of viral replication in patients ([1]; two year study) | anti-HBV activity [2] | efficacy against Hepatitis B virus [3]
Nc1ccn([C@@H]2CS[C@H](CO)O2)c(=O)n1 (relative stereo) [lamivudine, (2R,cis)-4-amino-1-(2-hydroxymethyl-1,3-oxathiolan-5-yl)-pyrimidin-2-one] | 52 | most patients showed substantially reduced levels of viral replication |  | 
C=C1[C@H](CO)[C@@H](O)C[C@@H]1n1cnc2c(=O)[nH]c(N)nc21 [BMS-200475] |  |  | anti-HBV activity in vitro | effective against Hepatitis B virus in woodchucks
